Reference: patent publication US8017584B2, “GD3-mimetic peptides” (Otsuka Pharmaceutical Co., Ltd., priority 2000, dated 2011)
One block for each substance: values may come before it.

Tests used:
[1] = system: T-cell-rich lymphocytes / IL-2-dependent CTLL2 cells; experiment: Cell response test: IL-2 activity (3H thymidine up-take of CTLL2 cells) in supernatant of spleen cells of mice immunized with R4 peptide (R4-KLH); assay type: cell-based, mouse; settings: mice immunized with R4 peptide
Protocol: Using a fusion peptide R4-KLH obtained in Example 3 (4) between GD3R4 and KLH or a MAP form fusion peptide R4MAP-KLH created between GD3R4 and KLH, immunization was performed as described in (1) above.
Briefly, an emulsion mixed with an adjuvant (1:1, by volume) was administered to each member of groups of mice, each group consisting of 3 mice (CD-1), in an amount of 100 μL/mouse (for one administration (ip), peptide 30 μg/mouse) for immunization. In the case of R4-KLH, administration was performed every one week for one month, and subsequently every two weeks for one month; and in the case of R4MAP-KLH, every one week for 2 months. In any case, 4 days after the final immunization, blood was collected to thereby prepare antiserum samples.
(§1) The spleen aseptically removed from each of the above-immunized mice was minced in a 10% FCS-supplemented RPMI 1640 medium. By use of a nylon wool column, T-cell-rich lymphocytes were prepared and the cells were counted. The above medium containing the cells in an amount of 10^5 cells per 150 μL was added to each of the wells of a culture plate. PHA was added so as to attain a final concentration of 1 μg/mL. A peptide of the present invention or any of different gangliosides in PBS was added, and the mixture was incubated for 96 hours. A supernatant (100 μL) was obtained from each well. The IL-2 activity of the supernatant was determined through use of IL-2-dependent mouse cells, CTLL2. Briefly, the supernatant (100 μL) diluted 2 to 50-fold with a medium was added to the wells in an amount of 10^4 CTLL2 cells/well, followed by incubation at 37° C. for 48 hours. Subsequently, 3H-thymidine (0.5 μCi) was added to each well, followed by incubation for 6 hours. CTLL2 cells were recovered on a paper filter and counted for 3H.

anti-GD3 antibody 4F6 = experiment: ELISA of MAPs immobilized at various amounts with 4F6 (Example 5(2), FIG. 3); assay type: binding, mouse; settings: MAPs or GD3 immobilized at various amounts
From the text: (1) In a manner similar to that described in Example 3, peptides of N-terminus 9 amino acid residues or C-terminus 9 amino acid residues of GD3R1, GD3R2, GD3R3, or GD3R4. The nomenclature and sequences of respective peptides employed in the present test are shown in FIG. 2 These were employed as multi-antigen peptides (MAPs). (2) In order to extend the research on bonding between the anti-GD3 antibody 4F6 and each of the GD3-mimetic peptides shown in FIG. 1, multi-antigen peptides (MAPs) were subjected to ELISA. MAP samples having a variety of concentrations shown on the X-axis in FIG. 3 were provided, and each sample was immobilized onto the wells of a 96-well plate. Subsequently, the wells were blocked with a blocking solution (TBS supplemented with 1% BSA, 0.1% skim milk, and 0.02% Tween 20) at 4° C. overnight. 4F6 (hybridoma supernatant: used in the neat form) was added (100 μL/well) for reaction at room temperature for 2 hours. After completion of reaction, the supernatant was discarded, and the wells were washed with a washing solution (TBS supplemented with 1% FBS and 0.05% Tween 20) six times. Subsequently, the wells were allowed to react with peroxidase-labeled anti-mouse IgG (diluted 1,000-fold with a blocking solution) at room temperature for 2 hours. The wells were again washed with a washing solution four times, and the amount of peroxidase enzyme remaining in each well was detected and quantitatively determined with the substrate TMB, whereby binding of MAP to 4F6 was investigated. The test was performed in triplicate, and the values in the graph are “mean ±SD.”

[2] = system: T-cell-rich lymphocytes / IL-2-dependent CTLL2 cells; experiment: Cell response test: IL-2 activity (3H thymidine up-take of CTLL2 cells) in supernatant of spleen cells of mice immunized with GD3; assay type: cell-based, mouse; settings: mice immunized with GD3
Protocol: Similar to the case of immunization with R4-KLH, antiserum samples were also prepared through immunization with GD3 (30 μg).
as §1

[3] = system: binding between GD3 and 4F6; experiment: Inhibition by exogenously added MAPs of binding between GD3 and 4F6 (Example 5(4), FIG. 5); set-up: species or system mouse
Protocol: (4) Next, investigation was made as to whether binding between GD3R3 or GD3R4 and 4F6 occurred at the GD3 binding site of 4F6. To the wells of a plate to which GD3 had been immobilized (100 ng/well), each of the MAP samples having a variety of concentrations shown on the X-axis in FIG. 5 and 4F6 (100 μL/well) were simultaneously added, whereby an inhibitory test was performed. The test was performed in triplicate, and the values in the graph are “mean ±SD.”

[4] = system: binding between GD3 and 4F6 (anti-GD3 antibody); experiment: Inhibition by immobilized MAPs of binding between GD3 and 4F6 (Example 5(3), FIG. 4); set-up: species or system mouse; settings: immobilized MAP or GD3 absorbs 4F6
Protocol: (3) The binding affinity shown in FIG. 3 was investigated in another method. Briefly, MAP samples having a variety of concentrations shown on the X-axis in FIG. 4 were provided. Each sample was immobilized onto the wells of a 96-well plate, and the wells were allowed to react with 4F6 (100 μL/well) at 4° C. overnight. On the following day, the supernatant (80 μL) was collected and added to the wells of another plate to which GD3 had been immobilized in advance (100 ng/well) for reaction at room temperature for 2 hours. After completion of reaction, the amount of antibody 4F6 that had been condensed with GD3 (i.e., that had not been absorbed by MAP) was detected and quantitatively determined through the method described (2) above, whereby inhibitory effect of MAP on binding of GD3 to 4F6 was investigated. The test was performed in triplicate, and the values in the graph are “mean ±SD.”

[5] = system: binding between GD3 and 4F6; experiment: Inhibition by nine-residue MAPs of binding between GD3 and 4F6 (Example 5(5), FIG. 6); set-up: species or system mouse; settings: nine-residue MAP compared with the 15 residues
Protocol: Next, in an attempt to determine the domain required for establishing binding to anti-GD3 antibody 4F6 in GD3-mimetic peptides, an MAP of nine N-terminus residues of GD3R3 peptide and an MAP of nine C-terminus residues of the same GD3R3 peptide as shown in FIG. 2 were synthesized, their binding to 4F6 was studied by means of ELISA. ELISA was performed was performed in triplicate, and the values in the graphs are “mean ±SD.”

[6] = PHA 1 μg/mL + stimulant 0.5 μg/ml, supernatant dilution ½
[7] = stimulant 0.5 μg/ml, supernatant dilution 1/20
[8] = stimulant 0.5 μg/ml, supernatant dilution 1/50
[9] = stimulant 0.5 μg/ml, supernatant dilution ⅕
[10] = stimulant 1 μg/ml, supernatant dilution 1/20
[11] = stimulant 1 μg/ml, supernatant dilution 1/50
[12] = stimulant 1 μg/ml, supernatant dilution ½
[13] = stimulant 1 μg/ml, supernatant dilution ⅕
[14] = stimulant 2 μg/ml, supernatant dilution 1/20
[15] = stimulant 2 μg/ml, supernatant dilution 1/50
[16] = stimulant 2 μg/ml, supernatant dilution ½
[17] = stimulant 2 μg/ml, supernatant dilution ⅕
[18] = stimulant 5 μg/ml, supernatant dilution 1/20
[19] = stimulant 5 μg/ml, supernatant dilution 1/50
[20] = stimulant 5 μg/ml, supernatant dilution ½
[21] = stimulant 5 μg/ml, supernatant dilution ⅕

inhibitory effect of exogenously added sample on binding between GD3 and 4F6 (words, FIG. 5) ([3]; added simultaneously with 4F6 to GD3 100 ng/well): exhibited inhibitory effect | order of binding strength to 4F6 ([3]; deduced from FIG. 5): GD3>GD3R3>GD3R4 | inhibition of GD3 binding to 4F6 by immobilized sample (words, FIG. 4) [4]: inhibit GD3 from binding to the antibody
Substance: NeuAc α2-8 NeuAc α2-3 Gal β1-4 Glc β1-1 Cer [GD3, reference compound]
3H Thymidine up-take into CTLL2 cells, mean ± SE (4 wells) [1, 6]: 2635 ± 308 | 3H Thymidine up-take into CTLL2 cells, mean ± SE (4 wells) [1, 7]: 850 ± 87 | 3H Thymidine up-take into CTLL2 cells, mean ± SE (4 wells) [1, 8]: 169 ± 25 | 3H Thymidine up-take into CTLL2 cells, mean ± SE (4 wells) [1, 9]: 1792 ± 154 | 3H Thymidine up-take into CTLL2 cells, mean ± SE (4 wells) [1, 10]: 794 ± 82 | 3H Thymidine up-take into CTLL2 cells, mean ± SE (4 wells) [1, 11]: 202 ± 24 | 3H Thymidine up-take into CTLL2 cells, mean ± SE (4 wells) [1, 12]: 2721 ± 284 | 3H Thymidine up-take into CTLL2 cells, mean ± SE (4 wells) [1, 13]: 1658 ± 134 | 3H Thymidine up-take into CTLL2 cells, mean ± SE (4 wells) [1, 14]: 809 ± 74 | 3H Thymidine up-take into CTLL2 cells, mean ± SE (4 wells) [1, 15]: 212 ± 28 | 3H Thymidine up-take into CTLL2 cells, mean ± SE (4 wells) [1, 16]: 2797 ± 295 | 3H Thymidine up-take into CTLL2 cells, mean ± SE (4 wells) [1, 17]: 1722 ± 163 | 3H Thymidine up-take into CTLL2 cells, mean ± SE (4 wells) [1, 18]: 764 ± 68 | 3H Thymidine up-take into CTLL2 cells, mean ± SE (4 wells) [1, 19]: 184 ± 23 | 3H Thymidine up-take into CTLL2 cells, mean ± SE (4 wells) [1, 20]: 2619 ± 316 | 3H Thymidine up-take into CTLL2 cells, mean ± SE (4 wells) [1, 21]: 1636 ± 145 | binding of 4F6 to immobilized sample (words, FIG. 3) (anti-GD3 antibody 4F6): declined from the concentration 0.8 μg/well and higher | 3H Thymidine up-take into CTLL2 cells, mean ± SE (4 wells) [2, 6]: 2795 ± 175 | 3H Thymidine up-take into CTLL2 cells, mean ± SE (4 wells) [2, 7]: 810 ± 72 | 3H Thymidine up-take into CTLL2 cells, mean ± SE (4 wells) [2, 8]: 207 ± 22 | 3H Thymidine up-take into CTLL2 cells, mean ± SE (4 wells) [2, 9]: 1876 ± 152 | 3H Thymidine up-take into CTLL2 cells, mean ± SE (4 wells) [2, 10]: 762 ± 55 | 3H Thymidine up-take into CTLL2 cells, mean ± SE (4 wells) [2, 11]: 186 ± 27 | 3H Thymidine up-take into CTLL2 cells, mean ± SE (4 wells) [2, 12]: 2568 ± 235 | 3H Thymidine up-take into CTLL2 cells, mean ± SE (4 wells) [2, 13]: 1834 ± 169 | 3H Thymidine up-take into CTLL2 cells, mean ± SE (4 wells) [2, 14]: 758 ± 61 | 3H Thymidine up-take into CTLL2 cells, mean ± SE (4 wells) [2, 15]: 197 ± 28 | 3H Thymidine up-take into CTLL2 cells, mean ± SE (4 wells) [2, 16]: 2453 ± 264 | 3H Thymidine up-take into CTLL2 cells, mean ± SE (4 wells) [2, 17]: 1901 ± 188 | 3H Thymidine up-take into CTLL2 cells, mean ± SE (4 wells) [2, 18]: 794 ± 68 | 3H Thymidine up-take into CTLL2 cells, mean ± SE (4 wells) [2, 19]: 179 ± 23 | 3H Thymidine up-take into CTLL2 cells, mean ± SE (4 wells) [2, 20]: 2656 ± 257 | 3H Thymidine up-take into CTLL2 cells, mean ± SE (4 wells) [2, 21]: 1857 ± 185

ability to inhibit binding between GD3 and 4F6 (words, FIG. 6) [5]: comparable ability to the 15 residues
Substance: GD3R3C9: MAP of nine C-terminus residues of GD3R3 peptide (YAQRFFLLS)
